Structures can show the parent of a compound that is named as a salt. Where two headings read alike, the source gives them in different places.
What was measured:
[1] = Activity on oxygen consumption (male albino rats in metabolic cages, per os); assay type: in vivo; settings: po; for response vs control in vivo at 3 µM, 3 µmol/kg: dosage 3 μM/kg
Protocol: (1) -Activity on oxygen consumption
Male albino rats weighing 160-180 g were placed in metabolic cages after fasting for 24 hours. The cages were ventilated with a constant 6 liter room air/minute which was equilibrated at a dew point of 11° C. Samples of the spent air were collected during periods of in each case 14 minutes after again equilibrating and the oxygen content and CO2 content were analyzed. After an adaptation time of 4 hours the animals, divided into groups of 6, received either placebo (5% gum arabic) or the test substance (suspended in 5% gum arabic) per os. Thereafter, the determinations were carried out for a period of 12 hours. In Table I the average oxygen consumption after medication during the first 3 hours and the entire test duration (12 hours) is given as percentage of the oxygen consumption during the adaptation period. Corresponding corrections for changes in the placebo group have been taken into consideration.

[2] = Activity on heart rate (male albino rats, electrocardiogram, per os); assay type: in vivo; settings: rat; for Heart rate (% of controls), 1 hour: 1 hour after treatment; for Heart rate (% of controls), 3 hours: 3 hours after treatment
Protocol: (2) Activity on heart rate
Male albino rats weighing 250-320 g received 6 hours after withdrawl of food either placebo (5% gum arabic) or the test substance (suspended in 5% gum arabic) per os. The animals were subsequently immobilized in perforated plastic tubes. The electrocardiogram was derived by means of bipolar subcutaneous needle electrodes. The R-peak was used to trigger a beat counter. The heart rate measured 1 and 3 hours after treatment was given in Table II as a percentage of the control value (placebo).

[3] = 3 h, rat, per os, 1st-3rd hour, corrected for changes in placebo group, read-out: O2 consumption, % of the value of the pre-period, 1st-3rd hour
[4] = 12 h, rat, per os, 1st-12th hour, corrected for changes in placebo group, read-out: O2 consumption, % of the value of the pre-period, 1st-12th hour
[5] = 3 h, rat, per os, dosage 10 μM/kg, 1st-3rd hour, corrected for changes in placebo group, read-out: O2 consumption, % of the value of the pre-period, 1st-3rd hour
[6] = 12 h, rat, per os, dosage 10 μM/kg, 1st-12th hour, corrected for changes in placebo group, read-out: O2 consumption, % of the value of the pre-period, 1st-12th hour

| Structure (SMILES) | response vs control in vivo at 3 µM, 3 µmol/kg [1, 3] | response vs control in vivo at 3 µM, 3 µmol/kg [1, 4] | Heart rate (% of controls), 1 hour ([2]; dosage 10 mg/kg) | Heart rate (% of controls), 3 hours ([2]; dosage 10 mg/kg) | Heart rate (% of controls), 1 hour ([2]; dosage 30 mg/kg) | Heart rate (% of controls), 3 hours ([2]; dosage 30 mg/kg) | response vs control in vivo at 10 µM, 10 µmol/kg ([1]; Rattus norvegicus, 3 h, read-out: O2 consumption, % of the value of the pre-period, 1st-3rd hour) | response vs control in vivo at 10 µM, 10 µmol/kg ([1]; Rattus norvegicus, 12 h, read-out: O2 consumption, % of the value of the pre-period, 1st-12th hour) | Heart rate (% of controls), 1 hour ([2]; dosage 100 mg/kg) | Heart rate (% of controls), 3 hours ([2]; dosage 100 mg/kg) | response vs control in vivo at 10 µM, 10 µmol/kg [1, 5] | response vs control in vivo at 10 µM, 10 µmol/kg [1, 6] |
| --- | --- | --- | --- | --- | --- | --- | --- | --- | --- | --- | --- | --- |
| CCOCCOc1ccc(CCN(CC(CO)c2ccccc2)CC(CO)c2ccccc2)cc1 (racemic) [Example 2c] | 132% | 108% | 103 % of controls | 102 % of controls | 111 % of controls | 104 % of controls | – | – | – | – | – | – |
| CCOCCOc1ccc(CCNCC(CO)c2ccccc2)cc1.O=C(O)C(=O)O (single isomer, unassigned) [Example 3a, (R or S)-β-[[[p-(2-ethoxyethoxy)phenethyl]amino]methyl]-phenethyl alcohol oxalate] | 152% | 112% | 108 % of controls | – | 115 % of controls | – | – | – | – | – | – | – |
| CCOCCOc1ccc(C[C@@H](C)NCC(CO)c2ccccc2)cc1.O=C(O)C(=O)O (stereo partly drawn) [Example 2a, β-[[[(R)-p-(2-ethoxyethoxy)-α-methylphenethyl]amino]-methyl]-phenethyl alcohol oxalate] | – | – | – | – | 105 % of controls | 100 % of controls | 149% | 113% | 121 % of controls | 112 % of controls | – | – |
| CCOCCOc1ccc(CCNCC(CO)c2cccc(Cl)c2)cc1.O=C(O)C(=O)O (stereo not drawn) [Example 2b, m-chloro-β-[[[p-(2-ethoxyethoxy)phenethyl]amino]methyl]phenethyl alcohol oxalate] | 124% | 107% | – | – | 106 % of controls | 99 % of controls | – | – | 114 % of controls | 105 % of controls | – | – |
| CCOCCOc1ccc(CCN(CC(CO)c2cccc(Cl)c2)C[C@H](O)c2ccccc2)cc1 (stereo partly shown) [Example 2d, oxalate] | 152% | 127% | 103 % of controls | 100 % of controls | 111 % of controls | 104 % of controls | – | – | – | – | – | – |
| OCC(CNCCc1ccc(OCCOCCc2ccccc2)cc1)c1ccccc1 (stereo not drawn) [Example 2j, β-[[[p-(2-phenethoxy)ethoxy]phenethyl]amino]methyl]phenethyl alcohol oxalate] | – | – | – | – | – | – | – | – | 110 % of controls | – | 137% | 113% |
| CCOCCOc1ccc(CCNCC(CO)c2cccs2)cc1.O=C(O)C(=O)O (stereo not drawn) [Example 2o, β-[[[p-(2-ethoxyethoxy)phenethyl]amino]methyl]-2-thiophene-ethanol oxalate] | – | – | – | – | 108 % of controls | – | – | – | 111 % of controls | – | 147% | 115% |
| CCOC(=O)COc1ccc(CCNCC(CO)c2ccccc2)cc1 (stereo not drawn) [Example 4, ethyl [p-[2-[[β-(hydroxymethyl)phenethyl]-amino]ethyl]phenoxy]acetate hydrochloride] | 145% | 112% | – | – | – | – | – | – | – | – | – | – |

From patent US5045567A, “Propanolamine derivatives having anti-diabetic effects” (Hoffmann-La Roche Inc., priority 1989, dated 1991)
